What was measured:
Assay type in all cases: functional
UACC-257 [1] = assay: Cytotoxicity against human UACC257 cells assessed as growth inhibition after 48 hrs by sulforhodamine B assay; conditions: UACC-257, 48 h
MDA-MB-231 = assay: Cytotoxicity against human MDA-MB-231 cells assessed as cell growth at 10 uM after 48 hrs by sulforhodamine B assay relative to control; conditions: MDA-MB-231, 48 h, read-out: Activity
NCI-H322M = assay: Cytotoxicity against human NCI-H322M cells assessed as cell growth at 10 uM after 48 hrs by sulforhodamine B assay relative to control; conditions: read-out: Activity
NCI-H23 = assay: Cytotoxicity against human NCI-H23 cells assessed as cell growth at 100 uM after 48 hrs by sulforhodamine B assay relative to control; conditions: NCI-H23, 48 h, read-out: Activity
ACHN = assay: Cytotoxicity against human ACHN cells assessed as cell growth at 0.1 uM after 48 hrs by sulforhodamine B assay relative to control; conditions: read-out: Activity
PC-3 = assay: Cytotoxicity against human PC3 cells assessed as cell growth at 0.1 uM after 48 hrs by sulforhodamine B assay relative to control; conditions: PC-3, 48 h, read-out: Activity
NCI/ADR-RES = assay: Cytotoxicity against human NCI/ADR-RES cells assessed as cell growth at 100 uM after 48 hrs by sulforhodamine B assay relative to control; conditions: read-out: Activity
HCT-116 = assay: Cytotoxicity against human HCT116 cells assessed as cell growth at 0.1 uM after 48 hrs by sulforhodamine B assay relative to control; conditions: HCT-116, 48 h, read-out: Activity
NCI-H522 [2] = assay: Cytotoxicity against human NCI-H522 cells assessed as cell growth at 100 uM after 48 hrs by sulforhodamine B assay relative to control; conditions: NCI-H522, 48 h, read-out: Activity
Malme-3M = assay: Cytotoxicity against human MALME-3M cells assessed as cell growth at 0.01 uM after 48 hrs by sulforhodamine B assay relative to control; conditions: read-out: Activity
OVCAR-5 = assay: Cytotoxicity against human OVCAR5 cells assessed as cell growth at 0.01 uM after 48 hrs by sulforhodamine B assay relative to control; conditions: OVCAR-5, 48 h, read-out: Activity
DU-145 = assay: Cytotoxicity against human DU145 cells assessed as cell growth at 10 uM after 48 hrs by sulforhodamine B assay relative to control; conditions: DU-145, 48 h, read-out: Activity
HCC 2998 = assay: Cytotoxicity against human HCC2998 cells assessed as growth inhibition after 48 hrs by sulforhodamine B assay; conditions: HCC 2998, 48 h
RXF 393 = assay: Cytotoxicity against human RXF393 cells assessed as cell growth at 0.01 uM after 48 hrs by sulforhodamine B assay relative to control; conditions: RXF 393, 48 h, read-out: Activity
KM12 [3] = assay: Cytotoxicity against human KM12 cells assessed as growth inhibition after 48 hrs by sulforhodamine B assay; conditions: KM12, 48 h
UACC-62 [4] = assay: Cytotoxicity against human UACC62 cells assessed as cell growth at 100 uM after 48 hrs by sulforhodamine B assay relative to control; conditions: UACC-62, 48 h, read-out: Activity
NCI-H522 [5] = assay: Cytotoxicity against human NCI-H522 cells assessed as cell growth at 0.01 uM after 48 hrs by sulforhodamine B assay relative to control; conditions: NCI-H522, 48 h, read-out: Activity
HL-60(TB) [6] = assay: Cytotoxicity against human HL-60(TB) cells assessed as growth inhibition after 48 hrs by sulforhodamine B assay; conditions: HL-60, 48 h
K562 [7] = assay: Cytotoxicity against human K562 cells assessed as cell growth at 100 uM after 48 hrs by sulforhodamine B assay relative to control; conditions: K562, 48 h, read-out: Activity
OVCAR-8 [8] = assay: Cytotoxicity against human OVCAR8 cells assessed as cell growth at 100 uM after 48 hrs by sulforhodamine B assay relative to control; conditions: OVCAR-8, 48 h, read-out: Activity
Hs-578T [9] = assay: Cytotoxicity against human Hs 578T cells assessed as cell growth at 100 uM after 48 hrs by sulforhodamine B assay relative to control; conditions: read-out: Activity
UACC-257 [10] = assay: Cytotoxicity against human UACC257 cells assessed as cell growth at 100 uM after 48 hrs by sulforhodamine B assay relative to control; conditions: UACC-257, 48 h, read-out: Activity
NCI-H226 = assay: Cytotoxicity against human NCI-H226 cells assessed as cell growth at 100 uM after 48 hrs by sulforhodamine B assay relative to control; conditions: NCI-H226, 48 h, read-out: Activity
KM12 [11] = assay: Cytotoxicity against human KM12 cells assessed as cell growth at 1 uM after 48 hrs by sulforhodamine B assay relative to control; conditions: KM12, 48 h, read-out: Activity
K562 [12] = assay: Cytotoxicity against human K562 cells assessed as cell growth at 0.1 uM after 48 hrs by sulforhodamine B assay relative to control; conditions: K562, 48 h, read-out: Activity
HCT-15 = assay: Cytotoxicity against human HCT15 cells assessed as growth inhibition after 48 hrs by sulforhodamine B assay; conditions: HCT-15, 48 h
OVCAR-8 [13] = assay: Cytotoxicity against human OVCAR8 cells assessed as cell growth at 10 uM after 48 hrs by sulforhodamine B assay relative to control; conditions: OVCAR-8, 48 h, read-out: Activity
SN12C = assay: Cytotoxicity against human SN12C cells assessed as growth inhibition after 48 hrs by sulforhodamine B assay
HL-60(TB) [14] = assay: Cytotoxicity against human HL-60(TB) cells assessed as cell growth at 10 uM after 48 hrs by sulforhodamine B assay relative to control; conditions: HL-60, 48 h, read-out: Activity
UACC-62 [15] = assay: Cytotoxicity against human UACC62 cells assessed as cell growth at 10 uM after 48 hrs by sulforhodamine B assay relative to control; conditions: UACC-62, 48 h, read-out: Activity
SNB-19 = assay: Cytotoxicity against human SNB19 cells assessed as growth inhibition after 48 hrs by sulforhodamine B assay; conditions: SNB-19, 48 h
Hs-578T [16] = assay: Cytotoxicity against human Hs 578T cells assessed as cell growth at 0.01 uM after 48 hrs by sulforhodamine B assay relative to control; conditions: read-out: Activity
A498 [17] = assay: Cytotoxicity against human A498 cells assessed as cell growth at 10 uM after 48 hrs by sulforhodamine B assay relative to control; conditions: A498, 48 h, read-out: Activity
A498 [18] = assay: Cytotoxicity against human A498 cells assessed as cell growth at 100 uM after 48 hrs by sulforhodamine B assay relative to control; conditions: A498, 48 h, read-out: Activity
MDA-MB-435 = assay: Cytotoxicity against human MDA-MB-435 cells assessed as cell growth at 100 uM after 48 hrs by sulforhodamine B assay relative to control; conditions: MDA-MB-435, 48 h, read-out: Activity
SF-268 = assay: Cytotoxicity against human SF268 cells assessed as cell growth at 0.1 uM after 48 hrs by sulforhodamine B assay relative to control; conditions: SF-268, 48 h, read-out: Activity

`COc1ccc(-c2cc(/C=C/C(=O)c3ccc(N)cc3)[nH]n2)cc1` showed a GI50 (UACC-257 [1]) of 1.9 µM, an LC50 (UACC-257 [1]) of 9.36 µM and a TGI (UACC-257 [1]) of 4.21 µM. It also gave a growth at 10 µM (MDA-MB-231) of -7%, a growth at 10 µM (NCI-H322M) of -2% and a growth at 100 µM (NCI-H23) of -62%. For the same molecule, the growth at 0.1 µM (ACHN) was 105%, the growth at 0.1 µM (PC-3) was 93% and the growth at 100 µM (NCI/ADR-RES) was -38%. For the same molecule, the growth at 0.1 µM (HCT-116) was 105%, the growth at 100 µM (NCI-H522 [2]) was -75% and the growth at 0.01 µM (Malme-3M) was 93%. For the same molecule, the growth at 0.01 µM (OVCAR-5) was 99%, the growth at 10 µM (DU-145) was -55% and the GI50 (HCC 2998) was 1.83 µM. It also gave an LC50 (HCC 2998) of 6.17 µM, a TGI (HCC 2998) of 3.36 µM and a growth at 0.01 µM (RXF 393) of 95%. It also gave a GI50 (KM12 [3]) of 1.54 µM, an LC50 (KM12 [3]) of 7.61 µM and a TGI (KM12 [3]) of 3.42 µM. For the same molecule, the growth at 100 µM (UACC-62 [4]) was -93%, the growth at 0.01 µM (NCI-H522 [5]) was 84% and the GI50 (HL-60(TB) [6]) was 1.43 µM. For the same molecule, the LC50 (HL-60(TB) [6]) was > 100 µM, the TGI (HL-60(TB) [6]) was 7.71 µM and the growth at 100 µM (K562 [7]) was -60%. The growth at 100 µM (OVCAR-8 [8]) was -41%, the growth at 100 µM (Hs-578T [9]) was -35% and the growth at 100 µM (UACC-257 [10]) was -95%. For the same molecule, the growth at 100 µM (NCI-H226) was -51%, the growth at 1 µM (KM12 [11]) was 77% and the growth at 0.1 µM (K562 [12]) was 95%. For the same molecule, the GI50 (HCT-15) was 1 µM, the LC50 (HCT-15) was 34.9 µM and the TGI (HCT-15) was 3.62 µM. The growth at 10 µM (OVCAR-8 [13]) was 9%, the GI50 (SN12C) was 1.89 µM and the LC50 (SN12C) was 34.9 µM. The TGI (SN12C) was 6.63 µM, the growth at 10 µM (HL-60(TB) [14]) was -8% and the growth at 10 µM (UACC-62 [15]) was -89%. It also gave a GI50 (SNB-19) of 2.29 µM, a TGI (SNB-19) of 11.6 µM and a CC50 (SNB-19; read-out: LC50 (the source's name)) of 44.3 µM. For the same molecule, the growth at 0.01 µM (Hs-578T [16]) was 98%, the growth at 10 µM (A498 [17]) was -39% and the growth at 100 µM (A498 [18]) was -96%. It also gave a growth at 100 µM (MDA-MB-435) of -75% and a growth at 0.1 µM (SF-268) of 93%.
